Data from patent US20210147498A1, “USE OF GRAM-NEGATIVE LYSIN-ANTIMICROBIAL PEPTIDE (AMP) POLYPEPTIDE CONSTRUCTS IN PULMONARY SURFACTANT AND BIOFILMS” (priority 2018, published 2021).
Like-named read-outs stand apart in the source and are kept apart here.

Tested on: carbapenem-resistant P. aeruginosa strains
Test: microbe, parasite or virus in culture
Format: cell-based, Pseudomonas aeruginosa
Conditions: for MIC: Pseudomonas aeruginosa; for MIC Combination / MIC Alone: vs. WC-452
Method: Such resensitization may be determined by combining the present lysins or lysin-AMP polypeptide constructs with an antibiotic in a checkerboard assay as described herein. Antibiotic-resistant bacteria, such as carbapenem-resistant P. aeruginosa, are added to the lysin or lysin-AMP polypeptide construct combination. […] See Clinical and Laboratory Standards Institute (CLSI), CLSI. […] M100 Performance Standards for Antimicrobial Susceptibility Testing; 29th Edition. Clinical and Laboratory Standards Institute, Wayne, Pa., which is herein incorporated by reference in its entirety.
Up to seven carbapenem-resistant isolates were assessed. […] See Clinical and Laboratory Standards Institute (CLSI), CLSI. […] M100 Performance Standards for Antimicrobial Susceptibility Testing; 29th Edition. Clinical and Laboratory Standards Institute, Wayne, Pa.

C[C@@H](O)[C@H]1C(=O)N2C(C(=O)O)=C(SCCN=CN)C[C@H]12 [Imipenem, imipenem]
MIC (GN121, read-out: MIC (μg/mL) Alone, isolate PA20, checkerboard Imipenem + GN121): 16 µg/mL | MIC (GN121, read-out: MIC (μg/mL) Alone, isolate PA21, checkerboard Imipenem + GN121): 32 µg/mL | MIC (GN121, read-out: MIC (μg/mL) Alone, isolate PA23, checkerboard Imipenem + GN121): 16 µg/mL | MIC (GN123, read-out: MIC (μg/mL) Alone, isolate PA19, checkerboard IMIPENEM + GN123): 32 µg/mL | MIC (GN123, read-out: MIC (μg/mL) Alone, isolate PA20, checkerboard IMIPENEM + GN123): 16 µg/mL | MIC (GN123, read-out: MIC (μg/mL) Alone, isolate PA21, checkerboard IMIPENEM + GN123): 32 µg/mL | MIC (GN123, read-out: MIC (μg/mL) Alone, isolate PA22, checkerboard IMIPENEM + GN123): 16 µg/mL | MIC (GN123, read-out: MIC (μg/mL) Alone, isolate PA23, checkerboard IMIPENEM + GN123): 8 µg/mL | MIC (GN123, read-out: MIC (μg/mL) Alone, isolate PA24, checkerboard IMIPENEM + GN123): 32 µg/mL | MIC (GN123, read-out: MIC (μg/mL) Alone, isolate WC-452, checkerboard IMIPENEM + GN123): 16 µg/mL | susceptibility category of the isolate, carbapenem Alone (isolate PA19): (R) ((R) = resistant) | MIC (μg/mL) Combination (isolate PA19, IMIPENEM combined with GN123): 0.5 µg/mL | MIC (μg/mL) Combination (isolate PA19, Imipenem combined with GN121): 1 µg/mL | susceptibility category of the isolate, carbapenem in Combination (isolate PA19, combined with GN121): (S) ((S) = sensitive) | susceptibility category of the isolate, carbapenem in Combination (isolate PA19, combined with GN123): (S) ((S) = sensitive) | susceptibility category of the isolate, carbapenem Alone (isolate PA20): (R) ((R) = resistant) | MIC (μg/mL) Combination (isolate PA20, IMIPENEM combined with GN123): 1 µg/mL | MIC (μg/mL) Combination (isolate PA20, Imipenem combined with GN121): 0.5 µg/mL | susceptibility category of the isolate, carbapenem in Combination (isolate PA20, combined with GN121): (S) ((S) = sensitive) | susceptibility category of the isolate, carbapenem in Combination (isolate PA20, combined with GN123): (S) ((S) = sensitive) | susceptibility category of the isolate, carbapenem Alone (isolate PA21): (R) ((R) = resistant) | MIC (μg/mL) Combination (isolate PA21, IMIPENEM combined with GN123): 0.5 µg/mL | MIC (μg/mL) Combination (isolate PA21, Imipenem combined with GN121): 1 µg/mL | susceptibility category of the isolate, carbapenem in Combination (isolate PA21, combined with GN121): (S) ((S) = sensitive) | susceptibility category of the isolate, carbapenem in Combination (isolate PA21, combined with GN123): (S) ((S) = sensitive) | susceptibility category of the isolate, carbapenem Alone (isolate PA22): (R) ((R) = resistant) | MIC (μg/mL) Combination (isolate PA22, IMIPENEM combined with GN123): 2 µg/mL | MIC (μg/mL) Combination (isolate PA22, Imipenem combined with GN121): 2 µg/mL | susceptibility category of the isolate, carbapenem in Combination (isolate PA22, combined with GN121): (S) ((S) = sensitive) | susceptibility category of the isolate, carbapenem in Combination (isolate PA22, combined with GN123): (S) ((S) = sensitive) | susceptibility category of the isolate, carbapenem Alone (isolate PA23): (R) ((R) = resistant) | MIC (μg/mL) Combination (isolate PA23, IMIPENEM combined with GN123): 0.25 µg/mL | MIC (μg/mL) Combination (isolate PA23, Imipenem combined with GN121): 0.125 µg/mL | susceptibility category of the isolate, carbapenem in Combination (isolate PA23, combined with GN121): (S) ((S) = sensitive) | susceptibility category of the isolate, carbapenem in Combination (isolate PA23, combined with GN123): (S) ((S) = sensitive) | susceptibility category of the isolate, carbapenem Alone (isolate PA24): (R) ((R) = resistant) | MIC (μg/mL) Combination (isolate PA24, IMIPENEM combined with GN123): 2 µg/mL | MIC (μg/mL) Combination (isolate PA24, Imipenem combined with GN121): 1 µg/mL | susceptibility category of the isolate, carbapenem in Combination (isolate PA24, combined with GN121): (S) ((S) = sensitive) | susceptibility category of the isolate, carbapenem in Combination (isolate PA24, combined with GN123): (S) ((S) = sensitive) | susceptibility category of the isolate, carbapenem Alone (isolate WC-452): (R) ((R) = resistant) | MIC (μg/mL) Combination (isolate WC-452, IMIPENEM combined with GN123): 1 µg/mL | susceptibility category of the isolate, carbapenem in Combination (isolate WC-452, combined with GN123): (S) ((S) = sensitive) | susceptibility category of the isolate, carbapenem in Combination (isolate WC-452, combined with GN351): (S) ((S) = sensitive) | susceptibility category of the isolate, carbapenem in Combination (isolate WC-452, combined with GN370): (S) ((S) = sensitive) | susceptibility category of the isolate, carbapenem in Combination (isolate WC-452, combined with GN428): (S) ((S) = sensitive) | MIC Combination (IPM combined with GN351): 0.5 µg/mL | MIC Combination (IPM combined with GN370): 0.5 µg/mL | MIC Combination (IPM combined with GN428): 1 µg/mL | MIC Alone (checkerboard IPM + GN351): 16 µg/mL | MIC Alone (checkerboard IPM + GN370): 16 µg/mL | MIC Alone (checkerboard IPM + GN428): 16 µg/mL
